Experimental data taken from US20220279826A1, “OFF-FLAVOR SUPPRESSING AGENT” (AJINOMOTO CO., INC., priority 2019, published 2022).

Tests used:
[1] = Sensory evaluation in 0.06 wt % acesulfame potassium aqueous solution (Experimental Example 10); settings: summary of Table 24
Description: Each compound shown in the following Table 24 was added to a 0.06 wt % acesulfame potassium aqueous solution (an aqueous solution prepared by dissolving acesulfame potassium (0.06 parts by weight) in water (99.94 parts by weight)) so as to achieve the concentration (addition concentration) shown in the following Table 24 to prepare each evaluation sample.
(§1) Based on the following evaluation criteria, a panel of four experts determined by consensus the intensity of off-tastes (bitter taste) derived from acesulfame potassium in each evaluation sample, by comparison with a 0.06 wt % acesulfame potassium aqueous solution without addition of any compound (negative control).

[2] = Sensory evaluation in granular soy protein (Experimental Example 14); settings: text summary of Table 28
Description: Each compound shown in the following Table 28 was added to granular soy protein (manufactured by FUJI OIL CO., LTD.) so as to achieve the concentration (addition concentration) shown in the following Table 28 to prepare each evaluation sample.
(§2) Based on the following evaluation criteria, a panel of four experts determined by consensus the intensity of off-tastes (bitter taste, harsh taste, astringent taste) derived from soy protein in each evaluation sample, by comparison with granular soy protein without addition of any compound (negative control).

[3] = Sensory evaluation in soy protein hamburg steak (Experimental Example 17); settings: Table 32
Description: Of the materials shown in the following Table 31, the materials of category 1 were first mixed, and the materials of category 2 were further mixed. The obtained mixture was formed into a circular shape of about 100 g per piece, and then baked at 180° C. for 2 minutes and 30 seconds for each of the front and back sides on an iron plate to produce a soy protein hamburg steak. Here, the granular soy protein manufactured by FUJI OIL CO., LTD. was used.
Each compound shown in the following Table 32 was added to soy protein hamburg steak so as to achieve the concentration (addition concentration) shown in the following Table 32 to prepare each evaluation sample.
Based on the following evaluation criteria, a panel of five experts determined by consensus the intensity of off-tastes (bitter taste, harsh taste, astringent taste) derived from soy protein in each evaluation sample, by comparison with soy protein hamburg steak without addition of any compound (negative control).

[4] = Sensory evaluation in sodium acetate aqueous solution (Experimental Example 18); settings: Table 33
Description: Each compound shown in the following Table 33 was added to an aqueous solution prepared by dissolving sodium acetate (1 part by weight) and acetic acid (0.3 parts by weight) in water (98.7 parts by weight) (hereinafter at times referred to as sodium acetate aqueous solution) so as to achieve the concentration (addition concentration) shown in the following Table 33 to prepare each evaluation sample.
as §2, with “sodium acetate” for “soy protein”, “a sodium acetate aqueous solution” for “granular soy protein”

[5] = Sensory evaluation in granular pea protein (Experimental Example 15); settings: Table 29
Description: Each compound shown in the following Table 29 was added to granular pea protein (manufactured by Roquette) so as to achieve the concentration (addition concentration) shown in the following Table 29 to prepare each evaluation sample.
as §2, with “pea” for “soy”

[6] = Sensory evaluation in granular fava bean protein (Experimental Example 16); settings: Table 30
Description: Each compound shown in the following Table 30 was added to granular fava bean protein (manufactured by Schouten) so as to achieve the concentration (addition concentration) shown in the following Table 30 to prepare each evaluation sample.
as §2, with “fava bean” for “soy”

[7] = Sensory evaluation in 0.12 wt % aspartame aqueous solution (Experimental Example 12); settings: Table 26
Description: (§3) Each compound shown in the following Table 26 was added to a 0.12 wt % aspartame aqueous solution (an aqueous solution prepared by dissolving aspartame (0.12 parts by weight) in ion exchange water (99.88 parts by weight)) so as to achieve the concentration (addition concentration) shown in the following Table 26 to prepare each evaluation sample.
as §1, with “three” for “four”, “(bitter taste, harsh taste, metallic” for “(bitter”, “aspartame” for “acesulfame potassium”, “0.12” for “0.06”

[8] = Sensory evaluation in 0.15 wt % catechin aqueous solution (Experimental Example 9); settings: summary of Table 23
Description: as §3, with “23” for “26”, “0.15” for “0.12”, “catechin” for “aspartame”, “catechin (0.15” for “aspartame (0.12”, “(99.85” for “(99.88”
as §1, with “(bitter taste, rough taste, harsh” for “(bitter”, “catechin” for “acesulfame potassium”, “0.15” for “0.06”

[9] = Sensory evaluation of off-taste suppressing effect in 0.8 wt % potassium chloride aqueous solution (Experimental Examples 1 and 2)
Description: Each compound shown in the following Tables 1 to 13 was added to a 0.8 wt % potassium chloride aqueous solution at the concentration (addition concentration) shown in the following Tables 1 to 13 to prepare each evaluation sample.
Based on the following evaluation criteria, a panel of two experts determined by consensus the intensity of off-tastes (bitter taste, metallic taste, harsh taste, astringent taste) derived from potassium chloride in each evaluation sample, by reference to each potassium chloride aqueous solution adjusted to 0.8 wt %, 0.75 wt %, 0.7 wt %, or 0.65 wt %.
−: intensity of the same level as potassium chloride aqueous solution with potassium chloride concentration of not less than 0.8 wt %
+: intensity of the same level as potassium chloride aqueous solution with potassium chloride concentration of not less than 0.75 wt % and less than 0.8 wt %
++: intensity of the same level as potassium chloride aqueous solution with potassium chloride concentration of not less than 0.7 wt % and less than 0.75 wt %
+++: intensity of the same level as potassium chloride aqueous solution with potassium chloride concentration of not less than 0.65 wt % and less than 0.7 wt %
Each compound shown in the following Table 14 was added to a 0.8 wt % potassium chloride aqueous solution at the concentration (addition concentration) shown in the following Table 14 to prepare each evaluation sample.

[10] = 0.8 wt % potassium chloride aqueous solution, addition concentration 100 weight ppb (12.5 weight ppm with respect to potassium chloride)
[11] = 0.8 wt % potassium chloride aqueous solution, addition concentration 500 weight ppb (62.5 weight ppm with respect to potassium chloride)
[12] = potassium chloride aqueous solutions, Tables 1 to 14
[13] = 0.8 wt % potassium chloride aqueous solution, addition concentration 50 weight ppb (6.25 weight ppm with respect to potassium chloride)

Row | SMILES | intensity of off-tastes (bitter taste) derived from acesulfame potassium [1] | intensity of off-tastes (bitter taste, harsh taste, astringent taste) derived from soy protein [2] | intensity of off-tastes (bitter taste, harsh taste, astringent taste) derived from soy protein [3] | intensity of off-tastes (bitter taste, harsh taste, astringent taste) derived from sodium acetate [4] | intensity of off-tastes (bitter taste, harsh taste, astringent taste) derived from pea protein [5] | intensity of off-tastes (bitter taste, harsh taste, astringent taste) derived from fava bean protein [6] | intensity of off-tastes (bitter taste, harsh taste, metallic taste) derived from aspartame [7] | intensity of off-tastes (bitter taste, rough taste, harsh taste) derived from catechin [8] | off-taste suppressing effect [9, 10] | off-taste suppressing effect [9, 11] | off-taste suppressing effect ([9]; 0.8 wt % potassium chloride aqueous solution, addition concentration 1000 weight ppb (125 weight ppm with respect to potassium chloride)) | off-taste suppressing effect ([9]; 0.8 wt % potassium chloride aqueous solution, addition concentration 2000 weight ppb (250 weight ppm with respect to potassium chloride)) | intensity of off-tastes (bitter taste, metallic taste, harsh taste, astringent taste) derived from potassium chloride [9, 12] | off-taste suppressing effect [9, 13] | off-taste suppressing effect ([9]; in words, potassium chloride aqueous solutions, Tables 1 to 14) | off-taste suppressing effect ([9]; 0.8 wt % potassium chloride aqueous solution, addition concentration 10 weight ppb (1.25 weight ppm with respect to potassium chloride))
1 | CC(=O)c1ccc(C)o1 [2-acetyl-5-methylfuran] | suppressed | suppressed | suppressed | suppressed | suppressed | suppressed | suppressed | suppressed | + (intensity of the same level as potassium chloride aqueous solution with potassium chloride concentration of not less than 0.75 wt % and less than 0.8 wt %) | ++ (intensity of the same level as potassium chloride aqueous solution with potassium chloride concentration of not less than 0.7 wt % and less than 0.75 wt %) | + (intensity of the same level as potassium chloride aqueous solution with potassium chloride concentration of not less than 0.75 wt % and less than 0.8 wt %) | + (intensity of the same level as potassium chloride aqueous solution with potassium chloride concentration of not less than 0.75 wt % and less than 0.8 wt %) | decreased |  |  | 
2 | CC(=O)c1ccco1 [2-acetylfuran] | suppressed | suppressed | suppressed | suppressed | suppressed | suppressed | suppressed | suppressed | +++ (intensity of the same level as potassium chloride aqueous solution with potassium chloride concentration of not less than 0.65 wt % and less than 0.7 wt %) | + (intensity of the same level as potassium chloride aqueous solution with potassium chloride concentration of not less than 0.75 wt % and less than 0.8 wt %) |  |  | decreased | ++ (intensity of the same level as potassium chloride aqueous solution with potassium chloride concentration of not less than 0.7 wt % and less than 0.75 wt %) | high | 
3 | CC1OCCC1=O (stereo not drawn) [2-methyltetrahydrofuran-3-one] | suppressed | suppressed | suppressed | suppressed | suppressed | suppressed | suppressed | suppressed | ++ (intensity of the same level as potassium chloride aqueous solution with potassium chloride concentration of not less than 0.7 wt % and less than 0.75 wt %) | + (intensity of the same level as potassium chloride aqueous solution with potassium chloride concentration of not less than 0.75 wt % and less than 0.8 wt %) |  |  | decreased | ++ (intensity of the same level as potassium chloride aqueous solution with potassium chloride concentration of not less than 0.7 wt % and less than 0.75 wt %) |  | ++ (intensity of the same level as potassium chloride aqueous solution with potassium chloride concentration of not less than 0.7 wt % and less than 0.75 wt %)
